Results from patent US20110123623A1, “RHAMNOLIPID MECHANISM” (priority 2009, published 2011).
“And” between values parts separate entries of the source, which are not always exact repeats. Equal values may be shown once. Read-outs that look alike come from different tables or passages of the source.

What was measured:
[1] = tested on: B-lymphocyte cells isolated from the spleen of balb/c mice; assay: Mouse B-cell proliferation (thymidine incorporation); format: cell-based
Description: (§1) T-lymphocyte cells isolated from thymus of balb/c mice weighing 17±1 g were used. Test compound and/or vehicle was incubated with the cells (4×10^6/ml) in the presence of 3 μg/ml concanavalin A (Con A) overnight. Thymidine incorporation was assessed by liquid scintillation counting. B-lymphocyte cells isolated from the spleen of balb/c mice weighing 17±1 g were used. Test compound and/or vehicle was incubated with the cells (1.5×10^6/ml) in the presence of 10 μg/ml lipopolysaccharide (LPS) in AIM-V medium pH 7.4 at 37° C., during 24 hours. [^3H]Thymidine (120 nM) was then added for an additional overnight incubation period. Thymidine incorporation was assessed by liquid scintillation counting. […] T-cells isolated from mouse thymus were inhibited at the concentration of 10 μM by 24% and in the presence of concanavalin T-cells proliferation was inhibited 43%.

[2] = Ames test
[3] = tested on: BALB/c male mice; assay: Immunostimulation (humoral); format: in vivo, mouse
From the text: (§2) Immunostimulation (humoral) in BALB/c male mice and Immunosuppression (humoral)^(2,7) on ICR male mice were negative.

[4] = tested on: patients; assay: Treatment of patients with seborrheic dermatitis, lichen planus and dermatitis circumscripta unilocularis; format: in vivo, human
Description: (§3) Twelve psoriatic hospital bed patients, and one patient with seborrheic dermatitis and psoriasis, one patient with lichen planus and one with dermatitis cicumscripta unilocullaris as an out clinic patient were recruited as study volunteers.
Patients with seborhheic dermatitis, lichen planus and dermatitis unilocularis circumscripta eczematoides were cured.
This condition, confirmed with clinical appearance and histopahological findings, was treated with different standard approaches, (mostly) steroids, but condition worsened with tendency to spread further to the large wound covered by thick crust. Following the treatment with 1% Di-rhamnolipid W3CTS, eucerin ointment was introduced with overnight inclusions during four weeks. […] Patient died by natural course 15 years after treatment had been finished.

[5] = tested on: female ICR mice; assay: Immunosuppression (cellular): oxazolone-induced delayed type hypersensitivity; format: in vivo, mouse; conditions: oxazolone-induced DTH
From the text: Immunosuppression (cellular): Oxazolone-induced delayed type hypersensitivity of female ICR mice was negative.

[6] = Storage stability of Di-rhamnolipid W3CTS; format: physicochemical; conditions: kept under Nitrogen in bottles at room temperature, 10 years
From the text: Di-rhamnolipid W3CTS has been isolated from Pseudomonas aeruginosa. Production of >98.5% pure Di-rhamnolipid W3CTS is a very expensive procedure; thus, the goal is to produce the clinically accepted purity of the rhamnolipid that has a long shelf life.

[7] = tested on: T-lymphocyte cells isolated from thymus of balb/c mice; assay: Mouse T-cell proliferation (thymidine incorporation); format: cell-based
Description: as §1

[8] = tested on: Swiss-Webster female mice; assay: Acute cutaneous irritation, mouse ear assay (Part A); format: in vivo; conditions: single topical application, up to 24 hours
Description: Effects of Di-rhamnolipid W3CTS on TPA/pyr induced acute inflammation in the ears of Swiss-Webster female mice.
The aim of this study was two-fold. In Part A the potential of a single topical application of W3CTS to cause acute cutaneous irritation (up to 24 hours) was measured in a mouse ear assay system. […] The aim of Part B was to determine the effects of a single topical administration of W3CTS on acute dermal inflammation induced by TPA/pyr, Part B was designed to differentiate the ability of Di-rhamnolipid W3CTS at concentration 1 mg/ml to prevent, inhibit or reverse induced ear inflammation.

[9] = tested on: psoriatic patients; assay: Physician sponsored treatment of psoriatic patients (PASI); format: in vivo, human
From the text: as §3
Abbreviations: PASI=Psoriasis Area Severity Index (Erythema, Infiltration and Scaling); PVP=Psoriasis Vulgaris in Placibus; d=days; m=months; y=years; ster=steroids (treated)

[10] = tested on: female Swiss-Webster mice; assay: in vivo; conditions: mouse
Description: (§4) Maximum tolerated doses of di-rhamnolipid W3CTS were administered intravenously in female Swiss-Webster mice.
(§5) Female Swiss-Webster mice obtained from the Houston, Tex. site Harlan Sprague Dawley, Inc were used in the study. All mice were divided into 6 groups. The vehicle and Di-rhamnolipid W3CTS were administered as an intravenous bolus, via tail vein, beginning with lowest dose level (75 mg/kg). […] In this study, the maximum tolerated dose of di-rhamnolipid W3CTS in female Swiss-Webster mice was 120 mg/kg. Three mice (LD50) of the next higher dose tested (135 /mg/kg) died immediately upon administration.

[11] = in vivo; conditions: female, Swiss-Webster, mouse, iv
Description: as §4, §5

[12] = tested on: female Swiss-Webster mice; format: in vivo; conditions: for MORTAL. / SIGNIFICANT FINDINGS: 7 days
Description: Multi-dose toxicity study of Di-rhamnolipid W3CTS administered subcutaneously in female Swiss-Webster mice for 7 days recovery period. The effects of 7 daily subcutaneous injections of the 99.3% pure Di-rhamnolipid W3CTS, followed by 7-day recovery period, were determined in female Swiss-Webster mice. Five groups (3 mice per group) were administered W3CTS doses at 0.012; 1, 2; 60 and 120 mg/kg/day and vehicle. All animals were observed and weighed throughout the study for clinical signs of toxicity including skin injection sites. On study Day 13 (seven days after last injection, 6 days for group 5) all animals were euthanized. The thymus, liver, kidneys, spleen, heart and lungs were weighed and preserved.
No mortality occurred at any dose level. […] Abnormal clinical observations at some animals at groups (60 and 120 mg/kg) were limited to skin lesions at the injection sites. All skin lesions were healing at termination.
At necropsy, two animals from group 120 mg/kg had moderate enlargement of the spleen and liver and adhesions between liver, spleen, kidneys and peritoneum were seen also in one animal (See Table 1).
Histopathology of spleen, thymus, and liver and selected skin site lesions was performed on tissues from high dose group animals and one control. […] Histopathologic features of skin lesions included evidence of chronic active inflammation, co-existing with progressing ulceration and/or healing.

[13] = tested on: ICR male mice; assay: Immunosuppression (humoral); format: in vivo, mouse
From the text: as §2

CCCCCCCC(CC(=O)O)OC(=O)CC(CCCCCCC)OC1OC(C)C(O)C(O)C1OC1OC(C)C(O)C(O)C1O (stereo not shown) [Di-rhamnolipid W3CTS]
effect on B-cell proliferation ([1]; 10 μM in 0.5% DMSO, without LPS): did not have any effect | inhibition at 10 µM ([1]; Mus musculus, B-cell, 10 μM, in the presence of LPS): ≤ 54% | Ames test [2]: negative | Immunostimulation (humoral) [3]: negative | outcome in seborhheic dermatitis, lichen planus and dermatitis unilocularis circumscripta eczematoides ([4]; 1.0% eucerin ointment): cured | skin over the wound ([4]; after one year): looking normal | wound healing in dermatitis circumscripta unilocularis ([4]; person, 1% eucerin ointment, overnight inclusions during four weeks): The wound started to heal | Immunosuppression (cellular) [5]: negative | change of structure on storage [6]: did not change its structure during 10 years | inhibition at 10 µM ([7]; in the presence of concanavalin, read-out: inhibition of T-cells proliferation): 43% | inhibition at 10 µM ([7]; without concanavalin, read-out: inhibition of T-cells): 24% | acute cutaneous irritation (ear erythema) [8]: did not cause acute cutaneous irritation | Psoriasis Area Severity Index After Treatment W3CTS ([9]; 1.0% eucerin ointment, 15-40 treating days, one patient per line): 0.2 (5×) and 0.3 and 0.4 and 6 and 0.6 (2×) and 1.6 and 0.9 | Psoriasis Area Severity Index Extended Evaluation W3CTS ([9]; 1 y (year), one patient per line): 1 y = 0 | Psoriasis Area Severity Index Extended Evaluation W3CTS ([9]; 3 m (months), one patient per line): 3 m = 0 (2×) and 3 m relapse and 3 m = 0.1 | Psoriasis Area Severity Index Before Treatment W3CTS ([9]; baseline of W3CTS treated lesions, one patient per line): 9.6 (2×) and 8.1 (3×) and 10.8 (4×) and 14.4 and 5.4 and 8.4 | duration free of psoriatic lesions ([9]; some of the patients): free of psoriatic lesions up to seven years | gross abnormalities at necropsy [10]: no gross abnormalities | tail finding, higher dose groups [10]: scabbing and necrosis of tails | LD50 at 14 day [11]: 135 mg/kg | MTD at 14 day [11]: 120 mg/kg | MORTAL. ([12]; 0.012 mg/kg/day s.c.): 0/3 | SIGNIFICANT FINDINGS ([12]; 0.012 mg/kg/day s.c.): None | MORTAL. ([12]; 1.20 mg/kg/day s.c.): 0/3 | SIGNIFICANT FINDINGS ([12]; 1.20 mg/kg/day s.c.): None | MORTAL. ([12]; 60 mg/kg/day s.c.): 0/3 | Histopathology: extramedullary hematopoiesis (mice) ([12]; 120 mg/kg/day s.c.): mouse, extramedullary hematopoiesis in 2 | Histopathology: thymic involution (mice) ([12]; 120 mg/kg/day s.c.): Histopathology: thymic involution in 1 | Necroscopy findings: adhesions between the liver and the spleen, kidneys and peritoneum (mice) ([12]; 120 mg/kg/day s.c.): spleen, kidneys and peritoneum (1/3 | MORTAL. ([12]; 120 mg/kg/day s.c.): 0/3 | Immunosuppression (humoral) [13]: negative
